# Test results: patent publication US8722665B2, “Cinnamido-pyrrolo[2,1-C][1,4]benzodiazepines as potential anticancer agents and process for the preparation thereof” (Council of Scientific & Industrial Research, priority 2008, dated 2014)
# Legend:
# Assay in all cases: In vitro cytotoxicity (SRB), cancer panel
# Format in all cases: cell-based, human
# Settings in all cases: average of six to eight cell lines, 48 h exposure
# Prostate cell lines = test system: Prostate cell lines
# Description: (§1) The compounds were evaluated for in vitro anticancer activity against sixty human tumour cells derived from nine cancer types (leukemia, non-small-cell lung, colon, CNS, melanoma, ovarian, prostate, and breast cancer) as shown in Table 1a. For each compound, dose response curves for each cell line were measured at a minimum of five concentrations at 10 fold dilutions. A protocol of 48 h continuous drug exposure was used and a sulforhodamine B (SRB) protein assay was used to estimate cell viability or growth. The concentration causing 50% cell growth inhibition (GI50), total cell growth inhibition (TGI 0% growth) and 50% cell death (LC50, −50% growth) compared with the control was calculated. The Log10 GI50 (concentration in mol/L causing 50% growth inhibition) values for Cinnamido-pyrrolo[2,1-c][1,4]benzodiazepine (8b) is listed in Table 2.
# CNS cell lines = test system: CNS cell lines
# Description: as §1
# Ovarian cell lines = test system: Ovarian cell lines
# Description: as §1
# Melanoma cell lines = test system: Melanoma cell lines
# Description: as §1
# [1] = test system: Non-small-cell lung cell lines
# Description: as §1
# Breast cell lines = test system: Breast cell lines
# Description: as §1
# Renal cell lines = test system: Renal cell lines
# Description: as §1
# Colon cell lines = test system: Colon cell lines
# Description: as §1
# Leukemia cell lines = test system: Leukemia cell lines
# Description: as §1
structure (smiles),measurement,setting,value
"COc1cc(/C=C/C(=O)N2CCN(C(=O)c3cc(OC)c(OC)c(OC)c3)CC2)ccc1OCCCOc1cc2c(cc1OC)C(=O)N1CCC[C@H]1C=N2 [8b, 7-methoxy-8-{3-(2-methoxy-4-(E)-3-oxo-3-[4-(3,4,5-trimethoxybenzoyl)piperazino]-1-propenylphenoxy)propoxy}-(11aS)-2,3,5,11^a-tetrahydro-5H-pyrrolo[2,1-c][1,4]benzo-diazepine-5-one]",Log10 GI50,Prostate cell lines,−6.44 mol/L
same,Log10 GI50,CNS cell lines,−6.78 mol/L
same,Log10 GI50,Ovarian cell lines,−6.36 mol/L
same,Log10 GI50,Melanoma cell lines,−6.64 mol/L
same,Log10 GI50,[1],−6.31 mol/L
same,Log10 GI50,Breast cell lines,−6.51 mol/L
same,Log10 GI50,Renal cell lines,−6.20 mol/L
same,Log10 GI50,Colon cell lines,−6.43 mol/L
same,Log10 GI50,Leukemia cell lines,−6.77 mol/L
